# Results as given in patent US20140147853A1, “Method for Predicting Respiratory Toxicity of Compounds” (priority 2009, published 2014).
# “Also recorded” adds a separate entry of the source. Where two headings read alike, the source gives them in different places.
# Assays:
# [1] = tested on: EPIAIRWAY cells; test: Cell viability by MTT reduction in EPIAIRWAY 3-D model; format: cell-based, human
# Experimental: (§1) The dosing regimen used here brackets this dose. […] Again, the dosing regimen used brackets this concentration. […] This calculates to 750 ng/cm^2.
# Cell viability was determined by measuring the reduction of 3-[4,5-dimethylthiazol-2-yl]2,5-diphenyltetrazolium bromide (MTT). The cells in each well were evaluated for their ability to reduce soluble-MTT (yellow) to formazan-MTT (purple). An MTT stock solution was prepared […] complete medium just prior to use and warmed to 37° C. in a water bath. Once the media and dosing solution was removed from all wells, MTT solution was added to the basal side of each well and the plate was allowed to incubate at 37° C. for 3-4 hr. Media was removed and the purple formazan product was extracted using anhydrous isopropanol applied to both the apical and basal side of the cells. Sample absorbance was read at 570 nm and reference absorbance at 650 nm with a Packard Fusion or equivalent plate reader.
# [2] = tested on: EPIAIRWAY cells; test: Intracellular glutathione (GSH) levels, oxidative stress; format: cell-based, human
# Experimental: as §1
# Intracellular glutathione levels were determined essentially as described by Griffith (1980) with modifications. At the end of the exposure period, the medium was removed from the cells and metaphosphoric acid (MPA) was added to each well. Plates were then shaken for 5 min at room temperature and stored at −20° C. until needed.
# [3] = tested on: Bcl2; test: qRT-PCR gene expression in EPIAIRWAY cells; format: cell-based, human; conditions: 24 hours
# Experimental: as §1
# [4] = tested on: IL-1α; test: qRT-PCR gene expression in EPIAIRWAY cells; format: cell-based, human; conditions: 24 hours; 1, 10, 30, 100 dosed
# Experimental: as §1
# [5] = tested on: IL-6; test: qRT-PCR gene expression in EPIAIRWAY cells; format: cell-based, human; conditions: for IL-6 mRNA expression vs control: 24 hours, 1, 10, 30, 100 dosed
# Experimental: as §1
# [6] = tested on: IL-8; test: qRT-PCR gene expression in EPIAIRWAY cells; format: cell-based, human; conditions: 24 hours
# Experimental: as §1
# [7] = tested on: TNF-α; test: qRT-PCR gene expression in EPIAIRWAY cells; format: cell-based, human; conditions: for TNF-α mRNA expression vs control: 1, 10, 30, 100 dosed
# Experimental: as §1
# [8] = tested on: CYP1A1
# Experimental: The three-dimensional in vitro human [sequence] system may be purchased from MatTek (Ashland, Mass.). Cultures are maintained with supplied culture media according to the manufacturer's instructions. Briefly, [sequence] 96-well plates are allowed to equilibrate in 250 μL media for at least 18 hours overnight at 37° C. with 5% CO2 upon arrival. Media is changed every other day if cells are not used immediately after equilibration.
# In the Examples described below, dosing solutions were prepared in DPBS (MatTek, Ashland, Mass.). The [sequence] cells were dosed with 100 μL of the following concentrations: 1, 10, 30 and 100 μM bleomycin, cadmium chloride, beryllium sulfate and doxorubicin; 1, 10, 30 and 100 μg/cm^2 silica; and 1, 10, 30 and 100 ng/mL LPS. […] The dosing regimen used here brackets this dose. […] Again, the dosing regimen used brackets this concentration. […] This calculates to 750 ng/cm^2. The concentrations and volumes dosed calculate to 483 ng/cm^2 (1 μM), 4.83 μg/cm^2 (10 μM), 14.5 μg/cm^2 (30 μM) and 48.3 μg/cm^2 (100 μM) doxorubicin, bracketing the safe range. MIN-U-SIL 5 silica, with an average surface area of 5.1 cm^2/g gives the following concentrations dosed: 0.051 cm^2/cm^2 (1 μg/cm^2), 0.51 cm^2/cm^2 (10 μg/cm^2), 1.53 cm^2/cm^2 (30 μg/cm^2) and 5.1 cm^2/cm^2 (100 μg/cm^2). […] In order to analyze the acute response of [sequence] cells to LPS, cells are exposed to LPS concentrations ranging from 1 ng/mL to 100 ng/mL. Following the exposure period, the dosing solutions are removed and cells are analyzed for changes in structure, cell viability, oxidative stress and gene expression.
# Total RNA was isolated from [sequence] human respiratory cells by the TRIZOL (Invitrogen, Carlsbad, Calif.) method (Chomczynski and Sacchi, 1987)with modifications. Briefly, cells were punched out using a biopsy punch (Miltex, York, Pa.) and immediately placed in TRIZOL. The samples were then frozen at −80° C. until needed. After thawing, the isolation procedure followed the manufacturer's instructions.
# Induction of target gene mRNA was determined as follows, by standard one-step qRT-PCR techniques using multiple internal control genes for normalization with a few modifications (Vandesompele et al, 2002). RT-PCR was performed using the Quantitect® SYBR Green RT-PCR kit (Qiagen, Valencia, Calif.) according to the manufacturer's instructions for 20 μL reactions. All primers were [sequence] Primer Assay (Qiagen, Valencia, Calif.) containing forward and reverse primers in the same tube (see Table 1, below). Briefly, 50 ng of RNA in 20 μL reactions are set up in 384-well RT-PCR plates (Roche Diagnostics Corp., Indianapolis, Ind.) and placed in a [sequence] 480 real time PCR machine (Roche Diagnostics Corp., Indianapolis, Ind.). One-step PCR was set as follows; reverse transcription was 1 cycle of 50° C. for 30 minutes followed by 95° C. for 15 minutes. Amplification was set for 45 cycles of 94° C. for 15 seconds, 55° C. for 20 seconds and 72° C. for 20 seconds. Melting curve was generated by 1 cycle of 95° C. for 5 seconds followed by 65° C. for 1 minute. Data were analyzed using the [sequence] 480 software version 1.5.0.39 (Roche Diagnostics Corp., Indianapolis, Ind.). The expression levels of multiple housekeeping genes were determined and an average fold induction over vehicle was elucidated for each housekeeping gene.
# [9] = tested on: fetal human lung cells and human lung fibroblasts; conditions: Sakaguchi 1984, Lehnert 2001; cited from earlier work
# [10] = tested on: EPIAIRWAY cells; test: Histology of EPIAIRWAY 3-D model (structural integrity); format: cell-based, human
# Experimental: as §1
# Cells were isolated using a 3 mm biopsy punch (Miltex, York, PA) and immediately placed in […] 10% Neutral Buffered Formalin (Fisher Diagnostics, Middletown, Va.). Histology was performed essentially as described by Sheehan and Hrapchak (1980). Briefly, cells were processed and embedded into paraffin wax blocks. The blocks were sectioned at 3 μm, adhered to slides and stained with hematoxylin and eosin. Photos were taken at 10× magnification.
# [11] = tested on: Bax; test: qRT-PCR gene expression in EPIAIRWAY cells; format: cell-based, human; conditions: 24 hours
# Experimental: as §1
# [12] = tested on: human epithelial cells; conditions: Han et al., 2007; cited from earlier work
# [13] = tested on: human fetal lung fibroblasts; conditions: Yang et al., 1997; cited from earlier work
# [14] = Literature: phase 1 study of inhaled doxorubicin; format: in vivo, human; conditions: calculated from 7.5 mg/m^2
# Experimental: as §1
# [15] = every 3 weeks, phase 1 study (Otterson 2007); cited from earlier work
# [16] = tested on: TGF-β; test: qRT-PCR gene expression in EPIAIRWAY cells; format: cell-based, human; conditions: 24 hours of exposure
# Experimental: as §1
# [17] = tested on: EPIAIRWAY cells; test: LDH release into the media by EPIAIRWAY cells; format: cell-based, human; conditions: 100 μM
# Source text: The primary shortcoming of this model system appears to be that the MTT results to not compare well with histology. This may be due to the fact that the basal cell layers have the highest metabolic activity given that they are still rapidly dividing. […] Fortunately, there appears to be a much more concise method to assess cytotoxicity in this model system. Lactate dehydrogenase is a cytosolic enzyme commonly used as a marker for cell membrane permeability, and therefore, cytotoxicity (Davies et al., 1973).
# [18] = tested on: human lung epithelia and fibroblasts; conditions: in vitro (Sato 1999, Takamizawa 1999); ~7.1 μM; cited from earlier work
# [19] = any dose (1, 10, 30, 100), 24 and 72 hours
# [20] = 24 hours, 1, 10, 30, 100 dosed, >2-fold significant
# [21] = dose-dependent, 1-100 μM, maximum reached
compound,measurement,setting,value
"O=S(=O)([O-])[O-].[Be+2] [Beryllium sulfate, beryllium sulfate]",Effect on cell viability (MTT),[1]; [19],did not reduce cell viability
same,Intracellular GSH,"[2]; 1 μM, 72 hours",65 % of control
same,Effect on intracellular GSH,"[2]; 10 μM, 72 hours",did not have an effect
same,Intracellular GSH,"[2]; 30 μM, 72 hours",83 % of control
same,Intracellular GSH,"[2]; 100 μM, 72 hours",71 % of control
same,Effect on intracellular GSH,"[2]; 24 hours, 1, 10, 30 and 100 μM",no effect
same,Bcl2 mRNA expression vs control,[3]; 100 μM,mildly induced
same,IL-1α mRNA expression vs control,[4],substantially induced
same,IL-6 mRNA expression vs control,[5],substantially induced
same,IL-8 mRNA expression vs control,[6]; 1 and 30 μM,mildly induced
same,TNFα mRNA expression vs control,"[7]; 100 μM, 24 hours",mildly induced
same,CYP1A1 mRNA expression vs control,[8]; [20],substantially induced
[Be+2] [Beryllium],Lowest cytotoxic concentration,[9],≥ 5.5 µM
"[Cl][Cd][Cl] [Cadmium chloride, cadmium chloride]",Cell viability (MTT),"[1]; 100 μM, 24 hours",56 % of control
same,Histology: cell structure,"[10]; 10 μM, 24 hour exposure",cell loss
same,Histology: cell structure,"[10]; 100 μM, 24 hour exposure",much more noticeable a breakdown of cellular structure
same,Histology: cell structure,[10]; 24 hours,significant structural breakdown and cell loss
same,Effect on intracellular GSH,"[2]; 24 hours, 1, 10, 30 and 100 μM",no reduction
same,Bax mRNA expression vs control,[11]; 100 μM,mildly induced
same,Bcl2 mRNA expression vs control,[3]; 100 μM,mildly induced
same,IL-6 mRNA expression vs control,[5],substantially induced
same,TNF-α mRNA expression vs control,[7]; 24 hours,mild induction
same,CYP1A1 mRNA expression vs control,[8]; [20],substantially induced
same,Concentration exhibiting cytotoxicity,[12],50 µM
same,Concentration inducing significant LDH release,[13],8.75 µM
COc1cccc2c1C(=O)c1c(O)c3c(c(O)c1C2=O)C[C@@](O)(C(=O)CO)C[C@@H]3O[C@H]1C[C@H](N)[C@H](O)[C@H](C)O1 [Doxorubicin],Effect on cell viability (MTT),"[1]; 1 μM, either time point (24, 72 hours)",no effect on cell viability
same,Cell viability (MTT),"[1]; 100 μM, 72 hours",57 % of control
same,Effect on cell viability (MTT),"[1]; 24 hours, 1, 10, 30 and 100 μM",not observed
same,Histology: cell structure,[10]; 24 hours,significant structural breakdown and loss of cells; also recorded: significant structural breakdown and cell loss
same,Intracellular GSH,"[2]; 100 μM, 72 hours",10 % of control
same,Intracellular GSH,"[2]; 10, 30 and 100 μM, 24 hours",80 % of control
same,Ratio of Bax:Bcl2 expression,[11],decreased
same,Bcl2 mRNA expression vs control,"[3]; 1, 10, 30 and 100 μM",substantially induced
same,IL-1α mRNA expression vs control,[4],substantially induced
same,IL-6 mRNA expression vs control,[5],substantially induced
same,IL-8 mRNA expression vs control,[6]; only 1 μM,mildly induced
same,TNF-α mRNA expression vs control,[7]; 24 hours,substantially induced
same,Safe inhalation dose recalculated per area,[14],750 ng/cm^2
same,CYP1A1 mRNA expression vs control,[8],substantially induced
same,Dose identified as safe for inhalation,[15],up to 7.5 mg/m^2
Bleomycin,Effect on cell viability (MTT),"[1]; 24 hours, 1, 10, 30 and 100 μM",no effect on viability
same,Cell viability (MTT),"[1]; 72 hour exposure, 1, 10, 30 and 100 μM dosed",90 % of control
same,Histology: cell structure,[10]; 24 hours,significant structural breakdown and cell loss; also recorded: significant structural breakdown and loss of cells
same,Intracellular GSH,"[2]; 1 μM, 72 hours",71 % of control
same,Total cellular GSH,"[2]; 100 μM, 24 hours",75 % of control
same,Ratio of Bax:Bcl2 expression,[11],decreased
same,Bcl2 mRNA expression vs control,"[3]; 1, 10, 30 and 100 μM",induced
same,IL-1α mRNA expression vs control,[4],induced in a dose-dependent manner
same,IL-6 mRNA increase over control tissues,[5]; [21],> 20 fold
same,IL-8 mRNA expression vs control,"[6]; 1, 10, 30, 100 dosed",induced in a dose-dependent manner
same,TGF-β mRNA expression vs control,[16],induction was not seen
same,TNF-α mRNA increase over control tissues,[7]; [21],> 20 fold
same,"LDH release into the media, increase compared to control",[17]; 24 hours,292%
same,"LDH release into the media, increase compared to control",[17]; 72 hours,588%
same,CYP1A1 mRNA expression vs control,[8]; [20],greatly induced
same,Concentration inducing cytokine release while relatively non-toxic,[18],10 µg/mL
Triton X-100,Histology: killing of basal cell layers,"[10]; 0.3%, 24 hours",unable to kill these bottom layers of cells
lipopolysaccharide [LPS],Effect on cell viability (MTT),[1]; [19],did not reduce cell viability
same,Intracellular GSH,"[2]; 100 ng/mL, 24 hours",65 % of control
same,Bcl2 mRNA expression vs control,[3]; only 30 and 100 ng/mL,induced
same,IL-1α mRNA expression vs control,[4],"substantial, dose-independant induction"
same,IL-6 mRNA expression vs control,[5],"substantial, dose-independant induction"
same,IL-8 mRNA expression vs control,"[6]; 1, 10, 30, 100 dosed",mild induction
same,TNF-α mRNA expression vs control,[7]; 24 hours,"substantial, dose-independant induction"
same,CYP1A1 mRNA expression vs control,[8]; [20],dose-dependant increase
